Experimental data: patent US20240166652A1, “MODULATORS OF THE INTEGRATED STRESS PATHWAY” (Calico Life Sciences LLC, priority 2017, published 2024)

What follows are compounds tested on ATF4 luciferase reporter in HEK293T cells (assay: ATF4-Luc assay (ATF4 luciferase reporter, tunicamycin-treated HEK293T cells)). Details: HEK293T cells carrying the ATF4 luciferase reporter, 1 μg/mL tunicamycin, 7 hours.
Type: cell-based, human

Structure (SMILES) | EC50 [nM]
O=C(COc1ccc(F)c(F)c1)NC12CCC(NC(=O)COc3ccc(F)c(F)c3)(CC1)[C@@H](O)C2 [Compound 683, N,N′-[(2S)-2-hydroxybicyclo[2.2.2]octane-1,4-diyl]bis[2-(3,4-difluorophenoxy)acetamide]] | < 10

Same assay, conditions: Homo sapiens, HEK-293T; HEK293T cells carrying the ATF4 luciferase reporter, 1 μg/mL tunicamycin, 7 hours

Structure (SMILES) | EC50 [nM]
O=C(COc1ccc(Cl)c(F)c1)NC12CCC(NC(=O)CNc3ccc(Cl)cc3)(CC1)[C@@H](O)C2 [Compound 657, 2-(4-chloroanilino)-N-{(2S)-4-[2-(4-chloro-3-fluorophenoxy)acetamido]-2-hydroxybicyclo[2.2.2]octan-1-yl}acetamide] | 50 to 250
Cn1cc(OCC(=O)NC23CCC(NC(=O)COc4ccc(Cl)c(F)c4)(CC2)C[C@@H]3O)cn1 [Compound 658, 2-(4-chloro-3-fluorophenoxy)-N-[(3S)-3-hydroxy-4-{2-[(1-methyl-1H-pyrazol-4-yl)oxy]acetamido}bicyclo[2.2.2]octan-1-yl]acetamide] | 50 to 250
O=C(COc1ccc(Cl)c(F)c1)NC12CCC(NC(=O)COc3cccc(F)c3)(CC1)[C@@H](O)C2 [Compound 659, 2-(4-chloro-3-fluorophenoxy)-N-{(3S)-4-[2-(3-fluorophenoxy)acetamido]-3-hydroxybicyclo[2.2.2]octan-1-yl}acetamide] | < 10
O=C(COc1ccc(Cl)c(F)c1)NC12CCC(NC(=O)COc3cccc(Cl)c3)(CC1)[C@@H](O)C2 [Compound 660, 2-(4-chloro-3-fluorophenoxy)-N-{(3S)-4-[2-(3-chlorophenoxy)acetamido]-3-hydroxybicyclo[2.2.2]octan-1-yl}acetamide] | < 10
Cn1cc(OCC(=O)NC23CCC(NC(=O)COc4ccccn4)(CC2)C[C@@H]3O)cn1 [Compound 661, N-[(2S)-2-hydroxy-4-{2-[(pyridin-2-yl)oxy]acetamido}bicyclo[2.2.2]octan-1-yl]-2-[(1-methyl-1H-pyrazol-4-yl)oxy]acetamide] | > 2000
O=C(COc1ccccn1)NC12CCC(NC(=O)COc3cccc(Cl)c3)(CC1)[C@@H](O)C2 [Compound 662, 2-(3-chlorophenoxy)-N-[(2S)-2-hydroxy-4-{2-[(pyridin-2-yl)oxy]acetamido}bicyclo[2.2.2]octan-1-yl]acetamide] | 250 to 500
O=C(COc1ccccn1)NC12CCC(NC(=O)COc3ccc(Cl)c(F)c3)(CC1)[C@@H](O)C2 [Compound 663, 2-(4-chloro-3-fluorophenoxy)-N-[(2S)-2-hydroxy-4-{2-[(pyridin-2-yl)oxy]acetamido}bicyclo[2.2.2]octan-1-yl]acetamide] | 10 to 50
Cc1cc(OCC(=O)NC23CCC(NC(=O)COc4ccc(Cl)c(Cl)c4)(CC2)[C@@H](O)C3)no1 [Compound 664, 2-(3,4-dichlorophenoxy)-N-[(2S)-2-hydroxy-4-{2-[(5-methyl-1,2-oxazol-3-yl)oxy]acetamido}bicyclo[2.2.2]octan-1-yl]acetamide] | 10 to 50
Cc1cc(OCC(=O)NC23CCC(NC(=O)COc4ccc(Cl)c(F)c4)(CC2)[C@@H](O)C3)no1 [Compound 665, 2-(4-chloro-3-fluorophenoxy)-N-[(2S)-2-hydroxy-4-{2-[(5-methyl-1,2-oxazol-3-yl)oxy]acetamido}bicyclo[2.2.2]octan-1-yl]acetamide] | 10 to 50
COc1cc(OCC(=O)NC23CCC(NC(=O)COc4ccc(Cl)c(F)c4)(CC2)[C@@H](O)C3)ncn1 [Compound 666, 2-(4-chloro-3-fluorophenoxy)-N-[(2S)-2-hydroxy-4-{2-[(6-methoxypyrimidin-4-yl)oxy]acetamido}bicyclo[2.2.2]octan-1-yl]acetamide] | 50 to 250
COc1ccc(OCC(=O)NC23CCC(NC(=O)COc4ccc(Cl)c(F)c4)(CC2)[C@@H](O)C3)nc1 [Compound 667, 2-(4-chloro-3-fluorophenoxy)-N-[(2S)-2-hydroxy-4-{2-[(5-methoxypyridin-2-yl)oxy]acetamido}bicyclo[2.2.2]octan-1-yl]acetamide] | > 2000
O=C(COc1ccc(Cl)c(F)c1)NC12CC(NC(=O)C3(c4ccc(Cl)cc4)CC3)(C1)C2 [Compound 668, N-{3-[2-(4-chloro-3-fluorophenoxy)acetamido]bicyclo[1.1.1]pentan-1-yl}-1-(4-chlorophenyl)cyclopropane-1-carboxamide] | > 2000
O=C(O)/C=C1\CC2(NC(=O)COc3ccc(Cl)c(F)c3)CCC1(NC(=O)COc1ccc(Cl)c(F)c1)CC2 [Compound 669, (2E)-{1,4-bis[2-(4-chloro-3-fluorophenoxy)acetamido]bicyclo[2.2.2]octan-2-ylidene}acetic Acid] | 50 to 250
O=C(COc1ccc(Cl)c(F)c1)NC12CCC(O)C(NC(=O)COc3ccc(Cl)c(F)c3)(CC1)C2 (stereo not shown) [Compound 670, N,N′-(2-hydroxybicyclo[3.2.1]octane-1,5-diyl)bis[2-(4-chloro-3-fluorophenoxy)acetamide]] | 500 to 2000
O=C(COc1ccc(Cl)c(F)c1)NC12CCC(=O)C(NC(=O)COc3ccc(Cl)c(F)c3)(CC1)C2 (stereo not shown) [Compound 671, N,N′-(2-oxobicyclo[3.2.1]octane-1,5-diyl)bis[2-(4-chloro-3-fluorophenoxy)acetamide]] | 500 to 2000
CCOC(=O)/C=C1\CC2(NC(=O)COc3ccc(Cl)c(F)c3)CCC1(NC(=O)COc1ccc(Cl)c(F)c1)CC2 [Compound 672, ethyl (2E)-{1,4-bis[2-(4-chloro-3-fluorophenoxy)acetamido]bicyclo[2.2.2]octan-2-ylidene}acetate] | 10 to 50
Cc1cc2nc(CNC34CCC(NC(=O)COc5ccc(C(F)(F)F)c(F)c5)(CC3)[C@@H](O)C4)[nH]c2cc1C [Compound 673, N-[(2S)-4-{[(5,6-dimethyl-1H-benzimidazol-2-yl)methyl]amino}-2-hydroxybicyclo[2.2.2]octan-1-yl]-2-[3-fluoro-4-(trifluoromethyl)phenoxy]acetamide] | 50 to 250
COc1cncc(OCC(=O)NC23CCC(NC(=O)COc4ccc(Cl)c(F)c4)(CC2)[C@@H](O)C3)c1 [Compound 675, 2-(4-chloro-3-fluorophenoxy)-N-[(2S)-2-hydroxy-4-{2-[(5-methoxypyridin-3-yl)oxy]acetamido}bicyclo[2.2.2]octan-1-yl]acetamide] | 10 to 50
COCCN1C(=O)C2(NC(=O)COc3ccc(Cl)c(F)c3)CCC1(NC(=O)COc1ccc(Cl)c(F)c1)CC2 [Compound 676, N,N′-[2-(2-methoxyethyl)-3-oxo-2-azabicyclo[2.2.2]octane-1,4-diyl]bis[2-(4-chloro-3-fluorophenoxy)acetamide]] | 250 to 500
CCCN1C(=O)C2(NC(=O)COc3ccc(Cl)c(F)c3)CCC1(NC(=O)COc1ccc(Cl)c(F)c1)CC2 [Compound 677, N,N′-(3-oxo-2-propyl-2-azabicyclo[2.2.2]octane-1,4-diyl)bis[2-(4-chloro-3-fluorophenoxy)acetamide]] | 500 to 2000
O=C(COc1ccc(Cl)c(F)c1)NC12CCC(NC(=O)COc3ccc(Cl)c(F)c3)(CC1)N(CCO)C2=O [Compound 679, N,N′-[2-(2-hydroxyethyl)-3-oxo-2-azabicyclo[2.2.2]octane-1,4-diyl]bis[2-(4-chloro-3-fluorophenoxy)acetamide]] | 50 to 250
O=C(COc1ccc(F)c(F)c1)NC12CCC(NC(=O)COc3ccc(Cl)c(Cl)c3)(CC1)C(=O)N2 [Compound 680, 2-(3,4-dichlorophenoxy)-N-{1-[2-(3,4-difluorophenoxy)acetamido]-3-oxo-2-azabicyclo[2.2.2]octan-4-yl}acetamide] | < 10
O=C(O)CN(CC(=O)NC12CC(NC(=O)COc3ccc(Cl)c(F)c3)(C1)C2)c1ccc(Cl)cc1 [Compound 684, {[2-({3-[2-(4-chloro-3-fluorophenoxy)acetamido]bicyclo[1.1.1]pentan-1-yl}amino)-2-oxoethyl](4-chlorophenyl)amino}acetic Acid] | > 2000
CC(C)(C)OC(=O)CN(CC(=O)NC12CC(NC(=O)COc3ccc(Cl)c(F)c3)(C1)C2)c1ccc(Cl)cc1 [Compound 685, tert-butyl {[2-({3-[2-(4-chloro-3-fluorophenoxy)acetamido]bicyclo[1.1.1]pentan-1-yl}amino)-2-oxoethyl](4-chlorophenyl)amino}acetate] | > 2000
O=C(O)CN(CCOc1ccc(Cl)c(F)c1)C12CC(NC(=O)COc3ccc(Cl)c(F)c3)(C1)C2 [Compound 686, ({3-[2-(4-chloro-3-fluorophenoxy)acetamido]bicyclo[1.1.1]pentan-1-yl}[2-(4-chloro-3-fluorophenoxy)ethyl]amino)acetic Acid] | 500 to 2000
O=C(O)CN(CCCOc1ccc(Cl)c(F)c1)C12CC(NC(=O)COc3ccc(Cl)c(F)c3)(C1)C2 [Compound 687, ({3-[2-(4-chloro-3-fluorophenoxy)acetamido]bicyclo[1.1.1]pentan-1-yl}[3-(4-chloro-3-fluorophenoxy)propyl]amino)acetic Acid] | 500 to 2000
CC(C)(C)OC(=O)CN(CCOc1ccc(Cl)c(F)c1)C12CC(NC(=O)COc3ccc(Cl)c(F)c3)(C1)C2 [Compound 688, tert-butyl ({3-[2-(4-chloro-3-fluorophenoxy)acetamido]bicyclo[1.1.1]pentan-1-yl}[2-(4-chloro-3-fluorophenoxy)ethyl]amino)acetate] | 50 to 250
O=C(COc1ccc2c(c1)OC(F)(F)C(F)(F)O2)NC12CCC(NC(=O)COc3ccc(Cl)c(F)c3)(CC1)C(=O)N2 [Compound 689, 2-(4-chloro-3-fluorophenoxy)-N-(3-oxo-1-{2-[(2,2,3,3-tetrafluoro-2,3-dihydro-1,4-benzodioxin-6-yl)oxy]acetamido}-2-azabicyclo[2.2.2]octan-4-yl)acetamide] | 50 to 250
COc1ncc(OCC(=O)NC23CCC(NC(=O)COc4ccc(Cl)c(F)c4)(CC2)C(=O)N3)cn1 [Compound 690, 2-(4-chloro-3-fluorophenoxy)-N-(1-{2-[(2-methoxypyrimidin-5-yl)oxy]acetamido}-3-oxo-2-azabicyclo[2.2.2]octan-4-yl)acetamide] | 250 to 500
O=C(COn1nnc2cccnc21)NC12CCC(NC(=O)COc3ccc(Cl)c(F)c3)(CC1)C(=O)N2 [Compound 691, 2-(4-chloro-3-fluorophenoxy)-N-(3-oxo-1-{2-[(3H-[1,2,3]-triazolo[4,5-b]pyridin-3-yl)oxy]acetamido}-2-azabicyclo[2.2.2]octan-4-yl)acetamide] | > 2000
